{
  "source": "paper PMC11233931",
  "about": "“Remodeling tumor‐associated macrophage for anti‐cancer effects by rational design of irreversible inhibition of mitogen‐activated protein kinase‐activated protein kinase 2” (MedComm, 2024)",
  "assay_in_all_cases": "Eurofins kinase selectivity profile against 380 other human recombinant kinases (Table S2)",
  "type_in_all_cases": "biochemical",
  "key": {"[1]": {"target": "T1, 380 human recombinant protein kinases (Homo sapiens, UniProt P15056)", "T1 construct": "purchased Eurofins (Celle Lévescault)", "details": "B-Raf(h), read-out: Inhibition rate", "summary_of_the_method": "(§1)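 Selectivity panel of 380 human recombinant protein kinases, screened by Eurofins at a range of concentrations.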"}, "[2]": {"target": "T2, 380 human recombinant protein kinases (Homo sapiens, UniProt Q9NQU5)", "T2 construct": "purchased Eurofins (Celle Lévescault)", "details": "PAK6(h), read-out: Inhibition rate", "summary_of_the_method": "as §1"}, "[3]": {"target": "T3, 380 human recombinant protein kinases (Homo sapiens, UniProt Q9HBY8)", "T3 construct": "purchased Eurofins (Celle Lévescault)", "T3 sequence (Q9HBY8 1-367)": "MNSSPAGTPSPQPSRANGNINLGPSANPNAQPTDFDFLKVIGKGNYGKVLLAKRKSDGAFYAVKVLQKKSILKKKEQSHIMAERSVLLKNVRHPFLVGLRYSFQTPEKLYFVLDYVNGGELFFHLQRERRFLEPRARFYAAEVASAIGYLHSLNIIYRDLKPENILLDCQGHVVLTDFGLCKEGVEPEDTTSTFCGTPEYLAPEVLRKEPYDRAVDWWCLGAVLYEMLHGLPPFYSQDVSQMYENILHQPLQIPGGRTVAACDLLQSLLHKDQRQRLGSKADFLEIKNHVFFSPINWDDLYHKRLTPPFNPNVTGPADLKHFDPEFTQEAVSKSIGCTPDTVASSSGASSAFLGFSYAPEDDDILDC", "details": "SGK2(h), read-out: Inhibition rate (%)", "summary_of_the_method": "as §1"}, "[4]": {"target": "T4, 380 human recombinant protein kinases (Homo sapiens, UniProt O94768)", "T4 construct": "purchased Eurofins (Celle Lévescault)", "T4 sequence (O94768 1-372)": "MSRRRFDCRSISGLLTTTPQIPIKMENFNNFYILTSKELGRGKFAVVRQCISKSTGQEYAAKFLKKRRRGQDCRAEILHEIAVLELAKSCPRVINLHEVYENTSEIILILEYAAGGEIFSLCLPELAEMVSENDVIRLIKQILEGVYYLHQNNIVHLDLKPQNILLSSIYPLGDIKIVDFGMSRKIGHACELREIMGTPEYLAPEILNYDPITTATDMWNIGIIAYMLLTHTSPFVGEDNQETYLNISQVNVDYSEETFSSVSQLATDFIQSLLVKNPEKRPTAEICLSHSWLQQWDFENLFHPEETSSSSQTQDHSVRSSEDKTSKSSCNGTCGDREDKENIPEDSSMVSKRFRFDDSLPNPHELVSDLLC", "details": "DRAK2(h), read-out: Inhibition rate", "summary_of_the_method": "as §1"}, "[5]": {"tested_on": "380 human recombinant protein kinases", "summary_of_the_method": "as §1"}, "[6]": {"target": "T5, 380 human recombinant protein kinases (Homo sapiens, UniProt P53671)", "T5 construct": "purchased Eurofins (Celle Lévescault)", "details": "LIMK2(h), read-out: Inhibition rate", "summary_of_the_method": "as §1"}, "[7]": {"target": "T6, 380 human recombinant protein kinases (Homo sapiens, UniProt P04629)", "T6 construct": "purchased Eurofins (Celle Lévescault)", "T6 sequence (P04629 33-796)": "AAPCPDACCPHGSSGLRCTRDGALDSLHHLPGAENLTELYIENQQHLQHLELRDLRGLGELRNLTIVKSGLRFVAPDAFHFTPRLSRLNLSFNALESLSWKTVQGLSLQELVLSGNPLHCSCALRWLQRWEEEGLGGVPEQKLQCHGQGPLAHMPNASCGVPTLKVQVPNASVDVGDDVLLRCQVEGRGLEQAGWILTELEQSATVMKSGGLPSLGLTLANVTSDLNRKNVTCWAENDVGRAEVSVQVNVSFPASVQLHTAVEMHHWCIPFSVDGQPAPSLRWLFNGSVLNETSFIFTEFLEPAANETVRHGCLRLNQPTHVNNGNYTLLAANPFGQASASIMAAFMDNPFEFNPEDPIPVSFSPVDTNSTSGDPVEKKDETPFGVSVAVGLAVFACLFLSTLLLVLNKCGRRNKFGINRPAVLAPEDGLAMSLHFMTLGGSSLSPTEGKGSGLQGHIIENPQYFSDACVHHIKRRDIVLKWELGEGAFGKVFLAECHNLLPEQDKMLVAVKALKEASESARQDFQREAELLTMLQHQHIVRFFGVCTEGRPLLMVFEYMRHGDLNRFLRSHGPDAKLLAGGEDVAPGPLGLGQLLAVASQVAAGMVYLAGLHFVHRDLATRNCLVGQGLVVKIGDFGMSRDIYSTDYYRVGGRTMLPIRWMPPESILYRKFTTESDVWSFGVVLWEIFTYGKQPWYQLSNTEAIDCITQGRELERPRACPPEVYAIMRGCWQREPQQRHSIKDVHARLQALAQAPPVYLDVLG", "details": "TrkA(h), read-out: Inhibition rate (%)", "summary_of_the_method": "as §1"}, "[8]": {"target": "T7, 380 human recombinant protein kinases (Homo sapiens, UniProt P00519, Q252H)", "T7 construct": "purchased Eurofins (Celle Lévescault)", "details": "Abl (Q252H) (h), read-out: Inhibition rate", "summary_of_the_method": "as §1"}, "[9]": {"target": "T8, 380 human recombinant protein kinases (Homo sapiens, UniProt P09769)", "T8 construct": "purchased Eurofins (Celle Lévescault)", "T8 sequence (P09769 whole entry)": "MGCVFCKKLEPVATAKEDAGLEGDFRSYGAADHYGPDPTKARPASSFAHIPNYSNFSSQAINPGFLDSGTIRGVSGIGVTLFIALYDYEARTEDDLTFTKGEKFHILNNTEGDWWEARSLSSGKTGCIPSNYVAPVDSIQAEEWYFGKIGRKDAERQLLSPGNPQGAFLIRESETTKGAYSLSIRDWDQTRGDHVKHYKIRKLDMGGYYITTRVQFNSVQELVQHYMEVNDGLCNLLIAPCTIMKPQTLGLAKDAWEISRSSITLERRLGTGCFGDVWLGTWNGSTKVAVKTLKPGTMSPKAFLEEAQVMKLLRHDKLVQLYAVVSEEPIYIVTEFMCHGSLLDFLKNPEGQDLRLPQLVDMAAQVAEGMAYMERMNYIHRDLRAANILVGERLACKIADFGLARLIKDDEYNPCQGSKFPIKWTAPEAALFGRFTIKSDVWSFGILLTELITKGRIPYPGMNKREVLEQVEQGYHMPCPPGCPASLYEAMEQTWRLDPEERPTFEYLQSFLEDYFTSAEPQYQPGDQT", "details": "Fgr(h), read-out: Inhibition rate", "summary_of_the_method": "as §1"}, "[10]": {"target": "T9, 380 human recombinant protein kinases (Homo sapiens, UniProt P45983)", "T9 construct": "purchased Eurofins (Celle Lévescault)", "T9 sequence (P45983 whole entry)": "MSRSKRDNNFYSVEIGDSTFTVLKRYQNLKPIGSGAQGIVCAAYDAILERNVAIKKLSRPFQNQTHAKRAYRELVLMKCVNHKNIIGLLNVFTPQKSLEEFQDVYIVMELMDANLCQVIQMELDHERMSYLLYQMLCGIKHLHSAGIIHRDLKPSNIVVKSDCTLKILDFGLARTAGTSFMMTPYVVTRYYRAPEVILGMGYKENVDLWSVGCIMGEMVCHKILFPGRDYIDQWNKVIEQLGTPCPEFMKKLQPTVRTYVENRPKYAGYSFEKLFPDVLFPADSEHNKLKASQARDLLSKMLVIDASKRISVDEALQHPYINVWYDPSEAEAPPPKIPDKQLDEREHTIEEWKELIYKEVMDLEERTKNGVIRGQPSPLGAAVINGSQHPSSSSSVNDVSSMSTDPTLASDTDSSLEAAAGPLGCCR", "details": "JNK1α1(h), read-out: Inhibition rate", "summary_of_the_method": "as §1"}},
  "data": [
    {"smiles": "C=CC(=O)Nc1cc(-c2cc(-c3cc4c([nH]3)CCNC4=O)ccn2)ccc1OC(F)(F)F", "note": "[compound 11]", "values": [
      {"measurement": "inhibition at 0.01 µM", "setting": "[1]; 10 nM", "value": -7, "unit": "%"},
      {"measurement": "inhibition at 0.1 µM", "setting": "[1]; 100 nM", "value": -7, "unit": "%"},
      {"measurement": "inhibition at 1 µM", "setting": "[1]; 1000 nM", "value": 4, "unit": "%"},
      {"measurement": "inhibition at 0.01 µM", "setting": "[2]; 10 nM", "value": -2, "unit": "%"},
      {"measurement": "inhibition at 0.1 µM", "setting": "[2]; 100 nM", "value": -5, "unit": "%"},
      {"measurement": "inhibition at 1 µM", "setting": "[2]; 1000 nM", "value": -2, "unit": "%"},
      {"measurement": "inhibition at 0.01 µM", "setting": "[3]; 10 nM", "value": -10, "unit": "%"},
      {"measurement": "inhibition at 0.1 µM", "setting": "[3]; 100 nM", "value": -7, "unit": "%"},
      {"measurement": "inhibition at 1 µM", "setting": "[3]; 1000 nM", "value": 0, "unit": "%"},
      {"measurement": "inhibition at 0.01 µM", "setting": "[4]; 10 nM", "value": 28, "unit": "%"},
      {"measurement": "inhibition at 0.1 µM", "setting": "[4]; 100 nM", "value": 80, "unit": "%"},
      {"measurement": "inhibition at 1 µM", "setting": "[4]; 1000 nM", "value": 93, "unit": "%"},
      {"measurement": "inhibitory rate on the other 380 kinases tested", "setting": "[5]; 10 nM, all 380 kinases", "value": "less than 50%"},
      {"measurement": "selectivity for MK2 over the other tested kinases", "setting": "[5]; 91.8% of total tested kinases", "value": "more than 434 fold"},
      {"measurement": "Inhibition rate", "setting": "[5]; ACTR2(h), 10 nM", "value": -9, "unit": "%"},
      {"measurement": "Inhibition rate", "setting": "[5]; ACTR2(h), 100 nM", "value": -11, "unit": "%"},
      {"measurement": "Inhibition rate", "setting": "[5]; ACTR2(h), 1000 nM", "value": -8, "unit": "%"},
      {"measurement": "Inhibition rate", "setting": "[5]; MAPK1(h), 10 nM", "value": -1, "unit": "%"},
      {"measurement": "Inhibition rate", "setting": "[5]; MAPK1(h), 100 nM", "value": 0, "unit": "%"},
      {"measurement": "Inhibition rate", "setting": "[5]; MAPK1(h), 1000 nM", "value": 7, "unit": "%"},
      {"measurement": "Inhibition rate", "setting": "[5]; PKCβII(h), 10 nM", "value": -1, "unit": "%"},
      {"measurement": "Inhibition rate", "setting": "[5]; PKCβII(h), 100 nM", "value": 4, "unit": "%"},
      {"measurement": "Inhibition rate", "setting": "[5]; PKCβII(h), 1000 nM", "value": 6, "unit": "%"},
      {"measurement": "Inhibition rate", "setting": "[5]; PKG1β(h), 10 nM", "value": 7, "unit": "%"},
      {"measurement": "Inhibition rate", "setting": "[5]; PKG1β(h), 100 nM", "value": 10, "unit": "%"},
      {"measurement": "Inhibition rate", "setting": "[5]; PKG1β(h), 1000 nM", "value": 5, "unit": "%"},
      {"measurement": "inhibition at 0.01 µM", "setting": "[6]; 10 nM", "value": -9, "unit": "%"},
      {"measurement": "inhibition at 0.1 µM", "setting": "[6]; 100 nM", "value": -8, "unit": "%"},
      {"measurement": "inhibition at 1 µM", "setting": "[6]; 1000 nM", "value": -1, "unit": "%"},
      {"measurement": "inhibition at 0.01 µM", "setting": "[7]; 10 nM", "value": -6, "unit": "%"},
      {"measurement": "inhibition at 0.1 µM", "setting": "[7]; 100 nM", "value": -1, "unit": "%"},
      {"measurement": "inhibition at 1 µM", "setting": "[7]; 1000 nM", "value": 15, "unit": "%"},
      {"measurement": "inhibition at 0.01 µM", "setting": "[8]; 10 nM", "value": -6, "unit": "%"},
      {"measurement": "inhibition at 0.1 µM", "setting": "[8]; 100 nM", "value": 5, "unit": "%"},
      {"measurement": "inhibition at 1 µM", "setting": "[8]; 1000 nM", "value": 27, "unit": "%"},
      {"measurement": "inhibition at 0.01 µM", "setting": "[9]; 10 nM", "value": 1, "unit": "%"},
      {"measurement": "inhibition at 0.1 µM", "setting": "[9]; 100 nM", "value": 0, "unit": "%"},
      {"measurement": "inhibition at 1 µM", "setting": "[9]; 1000 nM", "value": 0, "unit": "%"},
      {"measurement": "inhibition at 0.01 µM", "setting": "[10]; 10 nM", "value": 2, "unit": "%"},
      {"measurement": "inhibition at 0.1 µM", "setting": "[10]; 100 nM", "value": 4, "unit": "%"},
      {"measurement": "inhibition at 1 µM", "setting": "[10]; 1000 nM", "value": 21, "unit": "%"}
    ]}
  ]
}
